Measured values published in patent publication US8802700B2 (Vertex Pharmaceuticals Incorporated, priority 2010, dated 2014).

These molecules were tested against T1, ΔF508-CFTR (Homo sapiens, UniProt P13569, DEL508-508) (assay: Membrane potential optical assay (FRET voltage-sensor dyes, VIPR), identification of potentiator compounds). Details: Table 3; assay not given.
T1 construct: expressed in transfected cells
Format: cell-based
Method in brief: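 NIH3T3 mouse fibroblasts stably expressing ΔF508-CFTR, cultured 24 h at 27 °C, were loaded with FRET voltage dyes CC2-DMPE and DiSBAC2(3). Double-addition format: first addition of Cl⁻-free (gluconate) medium with or without compound; membrane-potential change read as fluorescence on VIPR II.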

T1 sequence (P13569 with tags, fused parts or gaps DEL508-508): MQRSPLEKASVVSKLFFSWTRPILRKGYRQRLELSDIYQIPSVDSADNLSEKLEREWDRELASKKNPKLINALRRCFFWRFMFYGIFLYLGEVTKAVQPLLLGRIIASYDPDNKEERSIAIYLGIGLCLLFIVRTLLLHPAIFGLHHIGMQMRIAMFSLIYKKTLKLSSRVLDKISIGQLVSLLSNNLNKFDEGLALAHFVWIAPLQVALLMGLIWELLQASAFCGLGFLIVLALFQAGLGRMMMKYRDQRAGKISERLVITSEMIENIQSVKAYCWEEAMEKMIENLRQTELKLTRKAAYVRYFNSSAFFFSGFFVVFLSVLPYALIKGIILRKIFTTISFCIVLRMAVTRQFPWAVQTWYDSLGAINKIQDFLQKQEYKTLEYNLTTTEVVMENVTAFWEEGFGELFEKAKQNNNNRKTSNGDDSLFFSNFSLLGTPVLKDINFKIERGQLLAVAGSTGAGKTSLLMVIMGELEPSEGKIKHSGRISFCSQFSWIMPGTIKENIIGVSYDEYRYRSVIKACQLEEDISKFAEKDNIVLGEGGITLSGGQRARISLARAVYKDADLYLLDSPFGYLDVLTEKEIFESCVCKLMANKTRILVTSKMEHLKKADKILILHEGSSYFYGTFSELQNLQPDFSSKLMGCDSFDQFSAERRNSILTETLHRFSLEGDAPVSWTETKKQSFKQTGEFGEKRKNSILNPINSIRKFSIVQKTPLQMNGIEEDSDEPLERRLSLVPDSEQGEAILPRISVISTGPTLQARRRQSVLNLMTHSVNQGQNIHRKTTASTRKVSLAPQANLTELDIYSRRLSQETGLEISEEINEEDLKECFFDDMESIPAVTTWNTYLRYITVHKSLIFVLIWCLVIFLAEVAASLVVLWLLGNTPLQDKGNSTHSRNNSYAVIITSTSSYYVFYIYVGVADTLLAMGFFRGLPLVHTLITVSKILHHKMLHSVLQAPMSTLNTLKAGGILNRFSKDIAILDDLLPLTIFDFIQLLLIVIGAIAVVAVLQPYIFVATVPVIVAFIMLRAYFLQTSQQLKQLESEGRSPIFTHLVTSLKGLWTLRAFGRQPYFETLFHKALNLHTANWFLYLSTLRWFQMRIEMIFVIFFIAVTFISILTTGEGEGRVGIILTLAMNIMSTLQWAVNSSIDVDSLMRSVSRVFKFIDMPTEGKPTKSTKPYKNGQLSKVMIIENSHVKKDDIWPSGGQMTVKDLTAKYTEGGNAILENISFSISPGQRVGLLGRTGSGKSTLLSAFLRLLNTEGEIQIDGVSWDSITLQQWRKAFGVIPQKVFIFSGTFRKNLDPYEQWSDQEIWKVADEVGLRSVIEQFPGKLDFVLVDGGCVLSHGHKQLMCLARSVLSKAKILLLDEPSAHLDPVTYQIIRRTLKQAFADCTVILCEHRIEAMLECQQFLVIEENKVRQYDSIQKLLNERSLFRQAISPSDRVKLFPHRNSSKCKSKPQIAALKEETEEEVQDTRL

Row | EC50 [µM] | Compound
1 | 10 to 25 | CS(=O)(=O)Nc1cccc(NC(=O)c2c[nH]c3ccccc3c2=O)c1 [Compound 214, N-(3-methylsulfonylaminophenyl)-4-oxo-1H-quinoline-3-carboxamide]
2 | < 10 | CC(C)(C)c1cc(Cl)c(NC(=O)c2c[nH]c3ccccc3c2=O)cc1O [Compound 291, N-(2-chloro-5-hydroxy-4-tert-butyl-phenyl)-4-oxo-1H-quinoline-3-carboxamide]

Same assay, conditions: Table 3; assay not given; read-out: % Activity (% Efficacy, relative efficacy)

Row | Emax [%] | Compound
3 | 25 to 100 | O=C(Nc1cccc(Oc2ccccc2)c1)c1c[nH]c2ccccc2c1=O [Compound 87, 4-oxo-N-(3-phenoxyphenyl)-1H-quinoline-3-carboxamide]
4 | 25 to 100 | Cc1cccc2[nH]cc(C(=O)Nc3ccc(N4[C@H](C)CC[C@@H]4C)cc3C(F)(F)F)c(=O)c12 [Compound 592, N-(4-((2R,5S)-2,5-dimethylpyrrolidin-1-yl)-2-(trifluoromethyl)phenyl)-5-methyl-4-oxo-1,4-dihydroquinoline-3-carboxamide]
5 | < 25 | O=C(Nc1ccc2c(c1)CCO2)c1c[nH]c2ccccc2c1=O [Compound 467, N-(2,3-dihydrobenzofuran-5-yl)-4-oxo-1H-quinoline-3-carboxamide]
6 | 25 to 100 | O=C(Nc1ccc(C(F)(F)F)c(O)c1)c1c[nH]c2c(Cl)cccc2c1=O [Compound 716, 8-chloro-N-[3-hydroxy-4-(trifluoromethyl)phenyl]-4-oxo-1H-quinoline-3-carboxamide]
7 | 25 to 100 | COc1cc(NC(=O)c2c[nH]c3ccccc3c2=O)ccc1C(C)(C)C [Compound 2, N-(3-methoxy-4-tert-butyl-phenyl)-4-oxo-1H-quinoline-3-carboxamide]
8 | 25 to 100 | CS(=O)(=O)Nc1cccc(NC(=O)c2c[nH]c3ccccc3c2=O)c1 [Compound 214, N-(3-methylsulfonylaminophenyl)-4-oxo-1H-quinoline-3-carboxamide]
9 | 25 to 100 | CCOC(=O)Nc1cc(NC(=O)c2c[nH]c3ccccc3c2=O)ccc1C [Compound 141, [2-methyl-5-[(4-oxo-1H-quinolin-3-yl)carbonylamino]phenyl]aminoformic acid ethyl ester]
10 | > 100 | COc1ccc(C(C)C)cc1-c1ccccc1NC(=O)c1c[nH]c2ccccc2c1=O [Compound 59, N-[2-(5-isopropyl-2-methoxy-phenyl)phenyl]-4-oxo-1H-quinoline-3-carboxamide]
11 | 25 to 100 | COc1ccc(Oc2ccc(C(F)(F)F)cc2NC(=O)c2c[nH]c3ccccc3c2=O)cc1 [Compound 205, N-[2-(4-methoxyphenoxy)-5-(trifluoromethyl)phenyl]-4-oxo-1H-quinoline-3-carboxamide]
12 | 25 to 100 | CC(C)(C)c1cc(Cl)c(NC(=O)c2c[nH]c3ccccc3c2=O)cc1O [Compound 291, N-(2-chloro-5-hydroxy-4-tert-butyl-phenyl)-4-oxo-1H-quinoline-3-carboxamide]
13 | 25 to 100 | O=C(Nc1cc2[nH]ccc2cc1-c1ccccc1)c1c[nH]c2ccccc2c1=O [Compound 158, 4-Oxo-N-(5-phenyl-1H-indol-6-yl)-1H-quinoline-3-carboxamide]
14 | 25 to 100 | CNc1ccc(C(C)C)c(NC(=O)c2c[nH]c3ccccc3c2=O)c1 [Compound 399, N-(2-isopropyl-5-methylamino-phenyl)-4-oxo-1H-quinoline-3-carboxamide]
15 | 25 to 100 | COc1ccccc1NC(=O)c1c[nH]c2ccccc2c1=O [Compound 80, N-(2-methoxyphenyl)-4-oxo-1H-quinoline-3-carboxamide]
16 | < 25 | CC(C)(C)c1cc(F)c(NC(=O)c2c[nH]c3c(C(F)(F)F)cccc3c2=O)cc1O [Compound 638, N-(2-fluoro-5-hydroxy-4-tert-butyl-phenyl)-4-oxo-8-(trifluoromethyl)-1H-quinoline-3-carboxamide]
17 | 25 to 100 | Cc1ccc(C)n1-c1ccccc1NC(=O)c1c[nH]c2ccccc2c1=O [Compound 297, N-[2-(2,5-dimethyl-1H-pyrrol-1-yl)phenyl]-4-oxo-1H-quinoline-3-carboxamide]
18 | 25 to 100 | COC(=O)[C@@H]1CCCCN1c1ccc(NC(=O)c2c[nH]c3ccccc3c2=O)c(C(F)(F)F)c1 [Compound 715, (S)-methyl 1-(4-(4-oxo-1,4-dihydroquinoline-3-carboxamido)-3-(trifluoromethyl)phenyl)piperidine-2-carboxylate]
19 | 25 to 100 | CN(C)c1ccc(-c2ccccc2NC(=O)c2c[nH]c3ccccc3c2=O)cc1 [Compound 12, N-[2-(4-dimethylaminophenyl)phenyl]-4-oxo-1H-quinoline-3-carboxamide]
20 | 25 to 100 | Cc1cccc2[nH]cc(C(=O)Nc3cc4[nH]ccc4cc3C(C)(C)C)c(=O)c12 [Compound 565, 5-methyl-4-oxo-N-(5-tert-butyl-1H-indol-6-yl)-1H-quinoline-3-carboxamide]
21 | > 100 | CC1(c2cc(F)c(NC(=O)c3c[nH]c4cccc(C(F)(F)F)c4c3=O)cc2O)CCCCC1 [Compound 706, N-[2-fluoro-5-hydroxy-4-(1-methylcyclohexyl)-phenyl]-4-oxo-5-(trifluoromethyl)-1H-quinoline-3-carboxamide]
22 | < 25 | NC(=O)c1cccc(NC(=O)c2c[nH]c3ccccc3c2=O)c1 [Compound 179, N-(3-carbamoylphenyl)-4-oxo-1H-quinoline-3-carboxamide]
23 | < 25 | O=C(Nc1ccc(Cl)nc1)c1c[nH]c2ccccc2c1=O [Compound 392, N-(6-chloro-3-pyridyl)-4-oxo-1H-quinoline-3-carboxamide]
24 | 25 to 100 | Cc1cc2cc(NC(=O)c3c[nH]c4ccccc4c3=O)ccc2[nH]1 [Compound 230, N-(2-methyl-1H-indol-5-yl)-4-oxo-1H-quinoline-3-carboxamide]

Row | Emax [%] | Compound
25 | < 25 | N#CCc1ccc(NC(=O)c2c[nH]c3ccccc3c2=O)cc1 [Compound 110, N-[4-(cyanomethyl)phenyl]-4-oxo-1H-quinoline-3-carboxamide]
26 | 25 to 100 | CCOc1ccccc1-c1ccc(CN)cc1NC(=O)c1c[nH]c2ccccc2c1=O [Compound 163, 4-Oxo-1,4-dihydro-quinoline-3-carboxylic acid (4-aminomethyl-2′-ethoxy-biphenyl-2-yl)-amide]
27 | 25 to 100 | O=C(Nc1ccc2cc[nH]c2c1)c1cnc2ccc(F)cc2c1O [Compound 345, 6-fluoro-4-hydroxy-N-(1H-indol-6-yl)quinoline-3-carboxamide]
28 | 25 to 100 | O=C(Nc1ccc2c(c1)NCC2)c1c[nH]c2ccccc2c1=O [Compound 258, N-Indolin-6-yl-4-oxo-1H-quinoline-3-carboxamide]
29 | 25 to 100 | CC(C)(C)c1ccc(NC(=O)c2cnc3ccccc3c2OCc2ccccc2)cc1O [Compound 275, 4-Benzyloxy-N-(3-hydroxy-4-tert-butyl-phenyl)-quinoline-3-carboxamide]
30 | 25 to 100 | O=C(Nc1cccc2c1Cc1ccccc1-2)c1c[nH]c2ccccc2c1=O [Compound 18, N-(9H-fluoren-1-yl)-4-oxo-1H-quinoline-3-carboxamide]
31 | 25 to 100 | O=C(Nc1ccc2cc[nH]c2c1)c1cnc2cc(C(F)(F)F)cc(C(F)(F)F)c2c1O [Compound 130, 4-hydroxy-N-(1H-indol-6-yl)-5,7-bis(trifluoromethyl)quinoline-3-carboxamide]
32 | 25 to 100 | O=C(Nc1ccccc1-c1ccc(Cl)cc1)c1c[nH]c2ccccc2c1=O [Compound 424, N-[2-(4-chlorophenyl)phenyl]-4-oxo-1H-quinoline-3-carboxamide]
33 | 25 to 100 | Cc1ccc(NC(=O)c2c[nH]c3ccccc3c2=O)cc1N [Compound 167, N-(3-amino-4-methyl-phenyl)-4-oxo-1H-quinoline-3-carboxamide]
34 | 25 to 100 | Cc1ccccc1-c1nc2cc(NC(=O)c3c[nH]c4ccccc4c3=O)ccc2o1 [Compound 329, N-[2-(o-tolyl)benzooxazol-5-yl]-4-oxo-1H-quinoline-3-carboxamide]
35 | 25 to 100 | Cc1nc2cc(NC(=O)c3c[nH]c4ccccc4c3=O)ccc2s1 [Compound 44, N-(2-methylbenzothiazol-5-yl)-4-oxo-1H-quinoline-3-carboxamide]
36 | 25 to 100 | CCOC(=O)NC1CCCc2ccc(NC(=O)c3c[nH]c4ccccc4c3=O)cc21 (stereo not drawn) [Compound 482, [7-[(4-Oxo-1H-quinolin-3-yl)carbonylamino]tetralin-1-yl]aminoformic acid ethyl ester]
37 | 25 to 100 | CC(C)(C)c1cc(C(C)(C)C)c(NC(=O)c2c[nH]c3ccc(Cl)cc3c2=O)cc1O [Compound 623, 6-chloro-N-(5-hydroxy-2,4-ditert-butyl-phenyl)-4-oxo-1H-quinoline-3-carboxamide]
38 | 25 to 100 | CC(C)c1ccc(NC(=O)c2c[nH]c3ccc(Cl)cc3c2=O)c(C(F)(F)F)c1 [Compound 657, 6-chloro-N-[4-isopropyl-2-(trifluoromethyl)phenyl]-4-oxo-1H-quinoline-3-carboxamide]
39 | 25 to 100 | Cc1cccc2[nH]cc(C(=O)Nc3ccc(N4CCCC(C)C4)cc3C(F)(F)F)c(=O)c12 (stereo not drawn) [Compound 643, 5-methyl-N-[4-(3-methyl-1-piperidyl)-2-(trifluoromethyl)phenyl]-4-oxo-1H-quinoline-3-carboxamide]
40 | 25 to 100 | CCc1c[nH]c2cc(NC(=O)c3c[nH]c4ccccc4c3=O)ccc12 [Compound 383, N-(3-ethyl-1H-indol-6-yl)-4-oxo-1H-quinoline-3-carboxamide]
41 | < 25 | CCOc1cc(NC(=O)c2c[nH]c3ccccc3c2=O)c(OCC)cc1NC(=O)c1ccccc1 [Compound 7, N-(4-benzoylamino-2,5-diethoxy-phenyl)-4-oxo-1H-quinoline-3-carboxamide]
42 | 25 to 100 | O=C(Nc1ccc2cc[nH]c2c1)c1c[nH]c2ccccc2c1=O [Compound 33, N-(1H-indol-6-yl)-4-oxo-1H-quinoline-3-carboxamide]
43 | 25 to 100 | CC(C)c1cccc(C(C)C)c1NC(=O)c1c[nH]c2ccccc2c1=O [Compound 466, N-(2,6-diisopropylphenyl)-4-oxo-1H-quinoline-3-carboxamide]
44 | 25 to 100 | COc1cc(NC(=O)c2c[nH]c3ccccc3c2=O)ccc1-n1c(C)ccc1C [Compound 560, N-[4-(2,5-dimethylpyrrol-1-yl)-3-methoxy-phenyl]-4-oxo-1H-quinoline-3-carboxamide]
45 | < 25 | CSc1nc2ccccc2c(O)c1C(=O)Nc1ccc2cc[nH]c2c1 [Compound 374, 4-hydroxy-N-(1H-indol-6-yl)-2-methylsulfanyl-quinoline-3-carboxamide]
